Patent publication US20040198809A1 (priority 2001, published 2004)

Assay: pharmacological and clinical studies (summary statements)
Assay type: in vivo
Conditions: presence of R-citalopram
Description: This may be shown in functional in-vivo pharmacological models and studies of 5-HT-reuptake effect and or in behaviour models, for example depression models.

In the case of `CN(C)CCC[C@]1(c2ccc(F)cc2)OCc2cc(C#N)ccc21` [R-citalopram], the “impact on the effect of escitalopram” value is reported as “negative impact on the effect of escitalopram”.
